The subject of data set [1] is MDA-MB-435 breast carcinoma. The data set is described as follows: Tumor therapy with doxorubicin/peptide conjugates in tumor bearing mice. The note with it: for effect on tumor growth: relative to treatment with the vehicle, alone. Format: in vivo, Balb c nu/nu mice. As for the experimental part: Female 2-month old Balb c nu/nu mice (Harlan Sprague Dawley; San Diego CA) were used for these studies and were cared for according to the Burnham Institute animal facility guidelines. […] Tumors were allowed to grow to a size of about 1 cm^3 (about 5% of the mouse's body weight) before starting the treatment experiments, except for the toxicity experiments as discussed below.
Weekly doxorubicin/peptide conjugate or control treatments (5 µg/mouse/week of doxorubicin-equivalent) were administered intravenously. In some experiments, as indicated, a dose of 30 µg/mouse was administered every 3 weeks. Treatment with doxorubicin, alone, is referred to as "dox control" and treatment with doxorubicin conjugated to the non-tumor homing control peptide, […] As an additional control, in some experiments the tumor homing peptide was mixed with doxorubicin, without linking, and the mixture was administered to tumor bearing mice. Such treatment produced results that were not statistically different from those obtained with the above described dox controls.
Mice were anesthetized with a tribromoethanol-based anesthetic mixture (AVERTIN; Papaioannou and Fox, Lab. Anim. 43:189-192 (1993)) before each treatment. Anesthetization facilitated the tail vein injections (final volume, 200 µl) and allowed precise serial three dimensional tumor size measurements. Tumor volume calculations were based on the equation for the volume of an ovaloid: V=4/3(nabc), where a, b, and c are 1/2 of the measured diameters in each of the three dimensions.

The test system of data set [2] is MDA-MB-435 human breast carcinoma cells. It is filed as cell-based. The conditions noted are these: for cell killing: agents not removed after 30 min, after 24 hr.
Description: (§1) (SEQ ID NO: 1) conjugate, or the doxorubicin/[sequence] (SEQ ID NO: 19; control) conjugate (0.1 to 10 µg/well of doxorubicin-equivalent) for either 30 min or overnight. Following incubation, the agents were removed by extensive washing with PBS, then fresh medium added and incubation was continued. The number of surviving cells was determined at 24 hours with crystal violet staining (see Koivunen et al., supra, 1994).
Data set [3] can be described thus: Acute toxicity in mice bearing extremely large tumors. Format: in vivo. The conditions noted are these: 200 µg/mouse; tumors about 25% of body weight. As to the method: Acute toxicity studies also were performed.
Data set [4] has as its system MDA-MB-435 human breast carcinoma cells. The data set can be described thus: In vitro characterization of cytotoxicity, crystal violet staining. It is filed as cell-based.
Description: as §1
The subject of data set [5] is Human 435 breast carcinoma. The data set is described as follows: In vivo targeting of phage to a tumor, phage in organs quantitated. Set-up: species or system nude mice. As to the method:
When the tumors attained a diameter of about 1 cm, phage expressing a specific RGD-containing peptide were administered to the tumor bearing mouse. Similar results TABLE 1
1 x 10^9 phage expressing the RGD-containing peptide, […] (SEQ ID NO: 1; see, Koivunen et al., supra, 1995) or control (insertless) phage were injected intravenously (iv) into the mice and allowed to circulate for 4 min. The mice then were snap frozen or perfused through the heart while under anesthesia, and various organs, including tumor, brain and kidney, were removed and the phage present in the organs was quantitated (see U.S. Patent No. 5,622,699; Pasqualini and Ruoslahti, supra, 1996).

The test system of a further data set is human Kaposi's sarcoma. The data set can be described thus: In vivo targeting of phage to a tumor. Also noted: species or system mice. The conditions noted are these: human Kaposi's sarcoma xenograft. As to the method:
Since the αvβ3 integrin is expressed by endothelial cells in angiogenic vasculature, experiments were performed to determine whether tumor vasculature that is undergoing angiogenesis can be targeted in vivo using methods as disclosed herein. Phage expressing the peptide, […] (SEQ ID NO: 1; see, Koivunen et al., supra, 1995), which is known to bind to the αvβ3 integrin, were injected into mice bearing tumors formed from human breast carcinoma cells, mouse melanoma cells or human Kaposi's sarcoma cells (see Example IV). The […] […] For example, in mice bearing tumors formed by implantation of human breast carcinoma cells, a twenty-to eighty-fold greater number of the […] (SEQ ID NO: 1) phage, as compared to unselected control phage, accumulated in the tumor.
(Xenograft models place foreign cells or tissue in a host animal.)

A further data set has as its system breast tumor. The data set is described as follows: Viability of tumor cells plated from tumors of treated mice. Format: in vivo. The conditions noted are these: 30 pg equivalent iv, tumors removed five days after treatment, cell numbers 24 hours and 7 days after plating. From the text: In addition, the viability of tumor cells obtained from tumors of mice treated with a tumor homing peptide/doxorubicin conjugate was compared to that of tumors from mice treated with free doxorubicin. In these experiments, breast tumor bearing mice were size matched with regard to the tumors, then treated intravenously with 30 pg equivalent of doxorubicin/[…] (SEQ ID NO: 1) or of free doxorubicin. Five days after treatment, the mice were euthanized and the tumors were removed. The tumor pairs were weighed and ground and the cell suspensions were plated (2 g tumor tissue per 150 mm plate).
Cell numbers were determined at 24 hours and 7 days after plating. Viability of tumor cells from the tumors of mice receiving the doxorubicin/[…] (SEQ ID NO: 1) conjugate was about 3 fold less than cells from tumors of mice treated with the free doxorubicin.

Data set [6] can be described thus: Acute toxicity in mice bearing extremely large tumors. It is filed as in vivo. The conditions noted are these: 200 µg/mouse; tumors about 25% of body weight. As to the method: Acute toxicity studies also were performed. […] (SEQ ID NO: 1) conjugate. All of the mice treated with the doxorubicin/[…]
The source holds these as a separate data set.

[7] abbreviates: 5 µg/mouse/week doxorubicin-equivalent.
[8] abbreviates: 5 µg/mouse/week doxorubicin-equivalent iv.
The mark [9] stands for this setting: exposure 30 min, then agents removed, 0.1 to 10 µg/well doxorubicin-equivalent, surviving cells at 24 hours.
Where [10] appears, read: 5 µg/mouse/week doxorubicin-equivalent iv, at necropsy, t test p<0.0001.

Read-outs that look alike come from different tables or passages of the source. Where no end group is shown, it is not given here.

Consider “doxorubicin/GACVFSIAHECGA: doxorubicin conjugated to the non-tumor homing control peptide, GACVFSIAHECGA (SEQ ID NO: 19) (cysteine pairing not given here; also: doxorubicin conjugated) [reference compound]”, for which, in data set [1] (setting [7]), the “gross examination: skin ulceration and tumor necrosis” value (from here on “gross examination”) is “no such signs were observed”. The “treatment results compared with dox control” value in data set [1] (setting [8]) is listed as “not significantly different”. In addition, in data set [1], the “effect on tumor growth” value was “essentially no effect on tumor growth”. Also, in data set [2], the cell death entry is “cell death was present only in the cultures treated with the doxorubicin/[…]” and the cell killing result is given as “killed”.

For `COc1cccc2c1C(=O)c1c(O)c3c(c(O)c1C2=O)C[C@@](O)(C(=O)CO)C[C@@H]3O[C@H]1C[C@H](N)[C@H](O)[C@H](C)O1` [doxorubicin], the “gross examination” value in data set [1] (5 µg/mouse/week doxorubicin equivalent) is “no such signs were observed”. In addition, in data set [1], the “effect on tumor growth” value is given as “essentially no effect on tumor growth”. The “time to death after treatment” value in data set [3] is at most 48 h. Moreover, in data set [4] (agents not removed after 30 min, after 24 hr), the cell killing entry was “killed”. In addition, the cell death result in data set [4] (setting [9]) was “cell death was present only in the cultures treated with the doxorubicin/CDCRGDCFC”.

For CLSGSLSC, the “selective homing of phage to the tumor” value (in data set [5]; with human Kaposi's sarcoma) was “also homed” each time.

As to “doxorubicin/CDCRGDCFC: CDCRGDCFC (SEQ ID NO: 1) coupled to doxorubicin using EDC and NHS (cysteine pairing not given here; also: doxorubicin coupled via EDC/NHS)”, in the data set on breast tumor, the “viability of tumor cells relative to cells from tumors of mice treated with free doxorubicin” value is “about 3 fold less”. Also, the “gross examination” value in data set [1] (setting [7]) was “marked skin ulceration and tumor necrosis”. In addition, in data set [1] (setting [8]), the “survival compared with dox control and conjugate control” value was “survived beyond the time when the dox control and conjugate control mice had died”; the “tumor size compared with controls” value was “significantly smaller tumors”. In addition, in data set [1] (setting [10]), the “pulmonary metastasis compared with dox control” value is “a lower incidence of pulmonary metastasis and fewer metastatic lesions”; the “spread to regional lymph nodes compared with dox control” value was “less spread to regional lymph nodes”. The “time alive after the dox control and conjugate control mice had died” value in data set [1] (dose escalation: 30 µg/mouse every three weeks for three cycles) is given as “more than 6 months”. In addition, the “histopathological analysis of tumor vasculature compared with dox control” value in data set [1] (mouse, in vivo) is listed as “pronounced destruction of the vasculature”. In data set [2], the cell killing entry is given as “killed”. For the same molecule, the cell death result in data set [2] (setting [9]) is on record as “cell death was present”. The survival after treatment entry in data set [6] is listed as “survived for longer than one week”.

The values above are taken from patent EP0927045B1, “TUMOR HOMING MOLECULES, […] THEREFROM, AND METHODS OF USING SAME” (The Burnham Institute, priority 1996, dated 1998).
